Consider four compounds from paper PMC5613016, “GRL-09510, a Unique P2-Crown-Tetrahydrofuranylurethane -Containing HIV-1 Protease Inhibitor, Maintains Its Favorable Antiviral Activity against Highly-Drug-Resistant HIV-1 Variants in vitro” (Scientific Reports, 2017).

Molecules are shown by their SMILES. Where two headings read alike, the source gives them in different places.

In data set [1] the test system is HIV-1ERS104pre (wild-type). The settings on record: PHA-PBMs, p24 assay, previously reported; and 22; read-out: EC50 HIV-1WT/ERS104pre; cited from earlier work.
Data set [2] has as its system HIV-1MDR/G. The arrangement: method as in earlier work. The settings on record: and 22, cited from earlier work.
For data set [3], the system named is HIV-1NL4-3. The settings on record: MT-4 cells, p24 assay, previously reported; and 22; cited from earlier work.
Data set [4] concerns HIV-1APV ^R 5μM. The arrangement: method as in earlier work. As to conditions: and 22, cited from earlier work.
In the next data set the test system is HIV-1LAI. Nature of the data set: microbe, parasite or virus in culture. It counts as cell-based. The settings on record: Human immunodeficiency virus 1, MT2, MT-2 cells, 100 TCID50, MTT assay; read-out: EC50 Against HIV-1LAI. The method, then:
(§1) The susceptibility of HIV-1LAI or HIV-2ROD to various compounds was determined as previously described[20]–[22]. Briefly, MT-2 cells (10^4/ml) were exposed to 100 TCID50 of HIV-1LAI or HIV-2ROD in the presence or absence of various concentrations of compounds in 96-well plates and were incubated at 37 °C for 7 days. After incubation, 100 μl of the medium was removed from each well, 3-(4,5-dimetylthiazol-2-yl)-2,5-diphenyltetrazolium bromide (MTT) solution (10 μl, 7.5 mg/ml in PBS) was added to each well, followed by incubation at 37 °C for 2 h. […] To determine the sensitivity of clinically isolated HIV-1s to compounds, PHA-PBMC (10^6/ml) were exposed to 50 TCID50 of each HIV-1 and cultured in the presence or absence of various concentrations of compounds in 10-fold serial dilutions in 96-well plates. In determining the drug-susceptibility of certain laboratory HIV-1 strains, MT-4 cells were employed as target cells as previously described[23],[24]. MT-4 cells (10^5/ml) were exposed to 100 TCID50 of drug-resistant HIV-1s in the presence or absence of various concentrations of compounds and were incubated at 37 °C. On day 7, the supernatants were harvested and the amounts of p24 were determined by using a fully-automated chemiluminescent enzyme immunoassay system (Lumipulse f: Fujirebio, Tokyo)[35]–[37]. […] All assays were performed in duplicate, and EC50 shown in this report represent average values of two to four independent experiments. PHA-PBMCs were derived from a single donor in each independent experiment. The research protocols described in the present study were carried out in accordance with relevant guidelines and regulations, and were approved in Ethics Committee for Epidemiological and General Research at the Faculty of Life Sciences, Kumamoto University.

The test system of another data set is HIV-2ROD. Nature of the data set: microbe, parasite or virus in culture. It counts as cell-based. The settings on record: Human immunodeficiency virus 2, MT2, MT-2 cells, 100 TCID50, MTT assay; read-out: EC50 Against HIV-2ROD. The procedure:
as §1
On the technique in general: Formazan colour is commonly taken as a measure of viable cells.

Data set [5] in a line: Cytotoxicity against MT-2 cells (MTT assay). It counts as cell-based. The settings on record: human. The procedure:
as §1

For data set [6], the system named is HIV-1ERS104pre (wild-type). The experiment in a line: p24 production inhibition in PHA-PBMC. It counts as cell-based. As to conditions: Human immunodeficiency virus 1, PHA-PBMC, p24 Gag production. The method, then: as §1
A further data set has as its system HIV-1MDR/B. The experiment in a line: p24 production inhibition in PHA-PBMC. Format: cell-based. As to conditions: Human immunodeficiency virus 1, PHA-PBMC, p24 Gag production. The procedure: as §1
Another data set relates to HIV-1MDR/C. Nature of the data set: p24 production inhibition in PHA-PBMC. Format: cell-based. As to conditions: Human immunodeficiency virus 1, PHA-PBMC, p24 Gag production. The method, then:
as §1

The test system of data set [7] is HIV-1MDR/G. The experiment in a line: p24 production inhibition in PHA-PBMC. Format: cell-based. As to conditions: Human immunodeficiency virus 1, PHA-PBMC, p24 Gag production. The method, then: as §1
In a further data set the test system is HIV-1MDR/TM. The experiment in a line: p24 production inhibition in PHA-PBMC. Format: cell-based. As to conditions: Human immunodeficiency virus 1, PHA-PBMC, p24 Gag production. The procedure: as §1
Another data set relates to HIV-1MDRmix DRV ^R 20P. Nature of the data set: p24 production inhibition in PHA-PBMC. Format: cell-based. The settings on record: Human immunodeficiency virus 1, read-out: EC50 HIV-1MDRmix DRV ^R 20P, PHA-PBMC, p24 Gag production. The method, then: as §1
In data set [8] the test system is HIV-1APV ^R 5μM. The experiment in a line: p24 production inhibition in MT-4 cells. It counts as cell-based. The settings on record: Human immunodeficiency virus 1, MT4, read-out: EC50 HIV-1APV ^R 5μM, MT-4 cells, p24 Gag production. The method, then:
as §1

The test system of the next data set is HIV-1ATV ^R 5μM. The experiment in a line: p24 production inhibition in MT-4 cells. Format: cell-based. As to conditions: Human immunodeficiency virus 1, MT4, read-out: EC50 HIV-1ATV ^R 5μM, MT-4 cells, p24 Gag production. The method, then:
as §1

For another data set, the system named is HIV-1LPV ^R 5μM. The experiment in a line: p24 production inhibition in MT-4 cells. Format: cell-based. The settings on record: Human immunodeficiency virus 1, MT4, read-out: EC50 HIV-1LPV ^R 5μM, MT-4 cells, p24 Gag production. The procedure: as §1
A further data set relates to HIV-1_9510 ^R 36P. Nature of the data set: p24 production inhibition in MT-4 cells. As to conditions: for EC50: Human immunodeficiency virus 1, MT4, read-out: EC50 HIV-19510RP36. It counts as cell-based. The method, then:
as §1

Data set [9] deals with HIV-1NL4-3. Nature of the data set: In vitro selection of resistant HIV-1 variants in MT-4 cells. As to conditions: HIV-1NL4-3 in MT-4 cells, increasing concentrations. Format: cell-based. An excerpt: MT-4 cells (10^5/ml) were exposed to HIV-1NL4-3 (500 TCID50) and cultured in the presence of compounds at an initial concentration of its EC50 value. Viral replication was monitored by the determination of the amount of p24 produced by MT-4 cells. The supernatants were harvested on day 7 and were used to infect fresh MT-4 cells for the next round of culture in the presence of increasing concentrations of each compound. Proviral DNAs obtained from the lysates of infected cells were subjected to sequencing. This selection procedure was carried out until the drug concentration reached 5 μM as previously described[20]–[22]).

Data set [10] relates to HIV-1NL4-3. The experiment in a line: p24 production inhibition in MT-4 cells. As to conditions: Human immunodeficiency virus 1, MT4, MT-4 cells, p24 Gag production, Supplemental Table 3. It counts as cell-based. The procedure:
as §1

Regarding `CC(C)CN(C[C@@H](O)[C@H](Cc1ccccc1)NC(=O)O[C@H]1CO[C@H]2OCC(F)(F)[C@H]21)S(=O)(=O)c1ccc(N)cc1` [GRL-05010], the EC50 was 2.7 ± 0.3 nM in data set [1]; 4 ± 1 nM with HIV-1MDR/G [2] (PHA-PBMs, p24 assay, previously reported); 3.7 ± 0.1 nM with HIV-1NL4-3 [3]; 560 ± 30 nM with HIV-1APV ^R 5μM [4] (MT-4 cells, p24 assay, previously reported, read-out: EC50 HIV-1APVR5M). Further, the “fold change in EC50 HIV-1MDR/G” value in the data set on HIV-1MDR/G [2] (compared to HIV-1WT/ERS104pre, previously reported data) was 1. Moreover, the “fold change in EC50 HIV-1APVR5M” value in the data set on HIV-1APV ^R 5μM [4] (compared to HIV-1NL4-3, previously reported data) was 187.

For `Cc1cccc(C)c1OCC(=O)N[C@@H](Cc1ccccc1)[C@@H](O)C[C@H](Cc1ccccc1)NC(=O)[C@H](C(C)C)N1CCCNC1=O` [LPV, Lopinavir], the EC50 was 23 ± 3 nM with HIV-1LAI; 21 ± 7 nM in the data set on HIV-2ROD; 28 ± 2 nM in data set [6]; more than 1000 nM with HIV-1MDR/B; 390 ± 50 nM in the data set with HIV-1MDR/C; 180 ± 20 nM in the data set with HIV-1MDR/G [7]. In addition, the EC50 in the data set with HIV-1MDR/TM is 550 ± 90 nM; in the data set on HIV-1MDRmix DRV ^R 20P, more than 1000 nM; in the data set on HIV-1APV ^R 5μM [8], 400 ± 10 nM; in the data set with HIV-1ATV ^R 5μM, more than 1000 nM; with HIV-1LPV ^R 5μM, more than 1000 nM; with HIV-1_9510 ^R 36P it was 400 ± 20 nM. For the same compound, the half-maximal cytotoxic concentration (CC50) – broadly, the concentration that lowers cell viability or growth by half – in data set [5] amounted to 26700 ± 4200 nM.

Consider `Cc1nnc(C(=O)NC(C)(C)c2nc(C(=O)NCc3ccc(F)cc3)c(O)c(=O)n2C)o1` [RAL, Raltegravir], for which the “passage at which selection concentration reached 5 µM” value with HIV-1NL4-3 [9] is given as not below 20.

Turning to `CC(C)(C)NC(=O)[C@@H]1C[C@@H]2CCCC[C@@H]2CN1C[C@@H](O)[C@H](Cc1ccccc1)NC(=O)[C@H](CC(N)=O)NC(=O)c1ccc2ccccc2n1` [SQV, saquinavir], the EC50 worked out at 18 ± 1 nM with HIV-1NL4-3 [10] and 41 ± 9 nM with HIV-1_9510 ^R 36P. Besides, in the data set on HIV-1_9510 ^R 36P (compared to EC50 for HIV-1NL4-3, Supplemental Table 3), the “fold change of EC50 HIV-19510RP36” value came out at 2.
